Assay results taken from ChEMBL document CHEMBL1201862, “PubChem BioAssay data set” (2004).
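All cell lines were grown in 96-well plates and treated with compound for 48 hours. At the GI50, growth is halved.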 Activity calls are given as the source filed them. No stated cut-off is given here; in the data, active = GI50 up to about 1.1 µM and inactive = higher.

Experiments:
Assay in all cases: inhibition of tumour cell growth, NCI panel, 48 h
MDA-MB-435 = system: MDA-MB-435
SK-MEL-5 = system: SK-MEL-5
M14 = system: M14
NCI-H226 = system: NCI-H226
HL-60 = system: HL-60
SK-MEL-28 = system: SK-MEL-28
RXF 393 = system: RXF 393
A549 = system: A549
CCRF-CEM = system: CCRF-CEM
MDA-MB-231 = system: MDA-MB-231
MDA-N = system: MDA-N
Hs-578T = system: Hs-578T
SN12C = system: SN12C
OVCAR-8 = system: OVCAR-8
PC-3 = system: PC-3
SNB-78 = system: SNB-78
UO-31 = system: UO-31
NCI-H460 = system: NCI-H460
BT-549 = system: BT-549
CAKI-1 = system: CAKI-1

Measured: GI50

O=C1/C(=C/c2ccc(Cl)c(Cl)c2)CNC/C1=C\c1ccc(Cl)c(Cl)c1
inactive: MDA-MB-435 20.9 µM | SK-MEL-5 36.5 µM | M14 15.8 µM | NCI-H226 21.9 µM | HL-60 8.39 µM | SK-MEL-28 26.3 µM | RXF 393 14 µM | A549 14.8 µM | CCRF-CEM 2.29 µM | MDA-MB-231 3.14 µM | MDA-N 20.4 µM | Hs-578T 3.21 µM | SN12C 5.08 µM | OVCAR-8 3.92 µM | PC-3 13.9 µM | SNB-78 > 57.4 µM | UO-31 17.5 µM | NCI-H460 10.3 µM | BT-549 27.9 µM | CAKI-1 4.09 µM
